Patent publication US20030092638A1, “Protopanaxadiol and protopanaxatriol and their use as anti-cancer agents” (priority 2001, published 2003)
pIC50: −log10 of the molar value. Like-named read-outs stand apart in the source and are kept apart here.

What was measured:
MCF7r cells [1] = conditions: MCF7r (drug resistant)
Protocol: (§1) Cells were either treated with various concentrations of paclitexal alone or in the presence of 20 μg/ml Rh2, 6 μg/ml PPT or PPD.

MCF7 cells [2] = conditions: MCF7 (drug sensitive)
Protocol: as §1

MCF7 cells [3] = experiment: cells; conditions: Homo sapiens, MCF7, read-out: IC50 of taxol
Protocol: as §1

MCF7r cells [4] = experiment: cells; conditions: Homo sapiens, read-out: IC50 of taxol
Protocol: as §1

Protocol for B16 melanoma tumor cells: Cells were treated with various concentrations of the compounds and the viability was measured 24 hours post treatment.

pIC50 (MCF7 cells [3])	pIC50 (MCF7r cells [4])	Compound	Tumor inhibitory effect (cytotoxicity) compared with Rh2 (B16 melanoma tumor cells)	Enhancement of IC50 of taxol versus taxol only (MCF7r cells [1]; compound at 6 μg/ml)	Enhancement of IC50 of taxol versus taxol only (MCF7 cells [2]; compound at 6 μg/ml)	Enhancement of IC50 of taxol versus taxol only (MCF7r cells [1]; compound at 20 μg/ml)	Enhancement of IC50 of taxol versus taxol only (MCF7 cells [2]; compound at 20 μg/ml)
–	–	CC(C)=CCCC(C)(O)[C@H]1CC[C@]2(C)[C@@H]1[C@H](O)C[C@@H]1[C@@]3(C)CC[C@H](O)C(C)(C)[C@@H]3CC[C@]12C (stereo in doubt) [Protopanaxadiol, protopanaxadiol]	more potent tumor inhibitory effect than Rh2	(29517 fold	(18 fold	–	–
6.65	6.03	CC(=O)O[C@H]1C(=O)[C@@]2(C)[C@H]([C@H](OC(=O)c3ccccc3)[C@]3(O)C[C@H](OC(=O)[C@H](O)[C@@H](NC(=O)c4ccccc4)c4ccccc4)C(C)=C1C3(C)C)[C@]1(OC(C)=O)CO[C@@H]1C[C@@H]2O [Taxol, paclitaxel]	–	–	–	–	–
–	–	CC(C)=CCC[C@](C)(O)[C@H]1CC[C@]2(C)[C@@H]1[C@H](O)C[C@@H]1[C@@]3(C)CC[C@H](O)C(C)(C)[C@@H]3[C@@H](O)C[C@]12C [Protopanaxatrial, protopanaxatriol]	more potent tumor inhibitory effect than Rh2	(1744 fold	(4.9 fold	–	–
–	–	CC(C)=CCC[C@](C)(O)[C@H]1CC[C@]2(C)[C@@H]1[C@H](O)C[C@@H]1[C@@]3(C)CC[C@H](O[C@@H]4O[C@H](CO)[C@@H](O)[C@H](O)[C@H]4O)C(C)(C)[C@@H]3CC[C@]12C [Rh2, 3-O-β-D-glucopyranosyl-20(s)-protopanaxadiol, reference compound]	–	–	–	(4470 fold	(3.65 fold
